Entries after “also recorded” stand apart in the source; their conditions may differ.
What was measured:
MM.1S cells = assay: Cell cycle profile by flow cytometry (PI staining); type: cell-based, human; conditions: 24 h
Method: […] Cells were then stained with propidium iodine (PI, Sigma) (5 μg/ml) and cell cycle profile was determined using program M software on an Epics flow cytometer (Coulter Immunology, Hialeah, Fla.) (44).

[1] = system: MM patient plasma cells from BM (BMPCs); assay: MTT cytotoxicity assay in MM patient plasma cells; type: cell-based, human; conditions: tubacin 5 μM with bortezomib, 24 h
Description: Dex-sensitive (MM.1S) and resistant (MM.1R) human MM cell lines were kindly provided by Dr. Steven Rosen (Northwestern University, Chicago, Ill.). RPMI8226 and U266 human MM cell lines were obtained from American Type Culture Collection (Rockville, Md.). IL-6 dependent INA-6 cell line was kindly provided by Dr M Gramatzki (Erlangen, Germany). Melphalan-resistant RPMI-LR5 and doxorubicin-resistant RPMI-Dox40 cell lines were provided by Dr William Dalton (Lee Moffitt Cancer Center, Tampa, Fla.). All MM cell lines were cultured in RPMI-1640 containing 10% fetal bovine serum (FBS, Sigma Chemical Co., St. Louis, Mo.), […] L-glutamine, 100 U/ml penicillin, and 100 μg/ml streptomycin (GIBCO, Grand Island, N.Y.). INA-6 cells were maintained with addition of IL-6 (1 ng/ml). MM patient plasma cells were purified from bone marrow (BM) aspirates by negative selection using an antibody cocktail (RosetteSep Separation System, StemCell Technologies, Vancouver, Canada), as previously described (31). The purity of MM cells was >90%, as confirmed by flow cytometric analysis using anti-CD138 Ab (BD Pharmingen, San Diego, Calif.). […]
The inhibitory effect of bortezomib and/or tubacin on MM cell growth was assessed by measuring 3-(4,5-dimethylthiazol-2-yl)-2,5-diphenyl tetrazolium bromide (MTT) dye absorbance, as described previously (33). […]

[2] = target: T1, interaction of HDAC6 with dynein (Homo sapiens, UniProt Q9UBN7); assay: Co-immunoprecipitation of HDAC6 with dynein or ubiquitinated proteins; type: cell-based; conditions: tubacin 2.5 and 5 μM, 8 h, MM.1S cells
T1 sequence (Q9UBN7 1-1215): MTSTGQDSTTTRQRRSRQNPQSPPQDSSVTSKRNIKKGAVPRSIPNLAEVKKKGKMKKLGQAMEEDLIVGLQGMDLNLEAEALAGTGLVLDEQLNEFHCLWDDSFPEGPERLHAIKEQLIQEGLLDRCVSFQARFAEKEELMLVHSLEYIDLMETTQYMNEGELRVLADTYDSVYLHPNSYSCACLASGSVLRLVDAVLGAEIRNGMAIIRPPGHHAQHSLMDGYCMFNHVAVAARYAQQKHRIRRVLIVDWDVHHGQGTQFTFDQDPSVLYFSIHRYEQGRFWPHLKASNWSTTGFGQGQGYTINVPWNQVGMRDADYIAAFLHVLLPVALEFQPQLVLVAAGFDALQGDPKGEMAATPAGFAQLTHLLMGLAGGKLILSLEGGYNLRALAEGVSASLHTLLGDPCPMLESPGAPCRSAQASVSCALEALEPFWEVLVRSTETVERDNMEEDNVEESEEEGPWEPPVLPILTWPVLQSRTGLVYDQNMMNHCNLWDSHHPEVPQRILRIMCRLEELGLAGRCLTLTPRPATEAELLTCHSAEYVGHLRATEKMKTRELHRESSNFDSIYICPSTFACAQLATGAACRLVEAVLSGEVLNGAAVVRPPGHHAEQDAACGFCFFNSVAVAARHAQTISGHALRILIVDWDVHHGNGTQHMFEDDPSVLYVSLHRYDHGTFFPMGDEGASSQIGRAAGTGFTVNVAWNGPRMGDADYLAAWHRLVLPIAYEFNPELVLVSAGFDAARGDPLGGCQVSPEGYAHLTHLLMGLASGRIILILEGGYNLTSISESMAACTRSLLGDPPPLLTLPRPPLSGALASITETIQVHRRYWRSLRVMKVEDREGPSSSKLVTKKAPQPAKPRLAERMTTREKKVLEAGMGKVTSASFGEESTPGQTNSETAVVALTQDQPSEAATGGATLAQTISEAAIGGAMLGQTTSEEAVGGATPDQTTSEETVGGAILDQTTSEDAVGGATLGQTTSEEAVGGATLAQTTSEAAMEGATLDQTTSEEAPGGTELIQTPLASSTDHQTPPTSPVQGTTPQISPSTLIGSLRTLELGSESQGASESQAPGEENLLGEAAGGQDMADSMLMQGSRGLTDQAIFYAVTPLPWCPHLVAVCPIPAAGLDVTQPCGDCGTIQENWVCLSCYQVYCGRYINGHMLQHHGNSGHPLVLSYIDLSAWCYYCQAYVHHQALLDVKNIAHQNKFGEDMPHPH
Method: Cells cultured with tubacin and/or bortezomib were harvested; washed, and lysed using lysis buffer: 50 mM Tris-HCl (pH 7.4), 150 mM NaCl, 1% NP-40, 5 mM EDTA, 5 mM NaF, 1 mM Na3VO4, 1 mM PMSF, 5 μg/ml leupeptine, and 5 μg/ml aprotinin. Whole cell lysates were subjected to SDS-PAGE, transferred to nitrocellulose membrane (Bio-Rad Laboratories, Hercules, Calif.), and immunoblotted with specific Abs (31). Western blotting was done using anti-HDAC6, acetylated lysine, acetylated histone H3, acetylated histone H4, ubiquitin (Ub), phospho-SAPK (JNK), caspase-8 caspase-9, caspase-3, and PARP Abs (Cell Signaling, Beverly, Mass.); with anti-α-tubulin Ab (Santa Cruz Biotechnology, Santa Cruz, Calif.); as well as with anti-dynein Ab (Sigma, Saint Louis, Mo.). For immunoprecipitation, whole cell lysates were incubated with anti-Ub or dynein Abs overnight at 4° C., and then incubated with protein A/G PLUS-Agarose (Santa Cruz Biotechnology) for 2 h at 4° C., as in our prior study (31). Immunoprecipitates were then subjected to Western blotting for detection of HDAC6 and dynein.

## O=C(CCCCCCC(=O)Nc1ccc([C@H]2O[C@@H](CSc3nc(-c4ccccc4)c(-c4ccccc4)o3)C[C@@H](c3ccc(CO)cc3)O2)cc1)NO [tubacin]
MM.1S cells; Velcade 5 nM with tubacin 5 μM
  G2/M arrest triggered by Velcade: significantly inhibits G2/M arrest
MM.1S cells; tubacin 5 μM alone
  cell cycle profile: does not alter cell cycle profile
[1]
  effect of tubacin on bortezomib (Velcade)-induced cytotoxicity in patient MM cells: markedly augmented by tubacin; also recorded: significantly (p<0.01) augments cytotoxicity triggered by Velcade; also recorded: synergistically enhances bortezomib-induced cytotoxicity
[2]
  co-immunoprecipitation between HDAC6 and ubiquitinated proteins: unaffected
  co-immunoprecipitation of HDAC6 with dynein: markedly inhibited in a dose-dependent fashion; also recorded: inhibits binding of HDAC6 with dynein

Reference: patent publication US10172905B1, “Treatment of protein degradation disorders” (President and Fellows of Harvard College, priority 2005, dated 2019)
